Read-outs that look alike come from different tables or passages of the source.
Details: rcm bond, 17-membered ring, Grubbs II

`C=Cc1cc(-c2cnc(C)nc2)cc2c(C(C)=O)nn(CC(=O)N3[C@H](C(=O)Nc4nc(C(F)(F)F)ccc4C)C[C@@]4(CNC(=O)C[C@@H](C)CCC=C(C)C)C[C@@H]34)c12` gave a ring closure, isolated yield (the molecule shown is the open-chain precursor, DCE, 1.25 mM, 50.0 °C) of 55.6%.

`CC(=O)c1nn2c3c(cc(-c4cnc(C)cn4)cc13)CC=CCC[C@@H](C)C(=O)NC[C@@]13C[C@@H](C(=O)Nc4nc(C(F)(F)F)ccc4C)N(C(=O)C2)[C@@H]1C3` gave a ring closure, isolated yield (from C=CCC[C@@H](C)C(=O)NC[C@@]12C[C@@H](C(=O)Nc3nc(C(F)(F)F)ccc3C)N(C(=O)Cn3nc(C(C)=O)c4cc(-c5cnc(C)cn5)cc(CC=C)c43)[C@@H]1C2, toluene, 1.32 mM, 80.0 °C) of 62.1%.

Compound `CC(=O)c1nn2c3c(cc(-c4cnc(C)nc4)cc13)CC=CCC(C)(C)CC(=O)NC[C@@]13C[C@@H](C(=O)Nc4nc(C(F)(F)F)ccc4C)N(C(=O)C2)[C@@H]1C3` has a ring closure, isolated yield (from C=CCc1cc(-c2cnc(C)nc2)cc2c(C(C)=O)nn(CC(=O)N3[C@H](C(=O)Nc4nc(C(F)(F)F)ccc4C)C[C@@]4(CNC(=O)CC(C)(C)CC=C)C[C@@H]34)c12, toluene, 1.2 mM, 80.0 °C) of 67.4%.

`CC(=O)c1nn2c3c(cc(-c4cnc(C)nc4)cc13)CC=CCC[C@@H](C)C(=O)NC[C@@]13C[C@@H](C(=O)Nc4cc(F)cc(Br)n4)N(C(=O)C2)[C@@H]1C3` showed a ring closure, isolated yield (from C=CCC[C@@H](C)C(=O)NC[C@@]12C[C@@H](C(=O)Nc3cc(F)cc(Br)n3)N(C(=O)Cn3nc(C(C)=O)c4cc(-c5cnc(C)nc5)cc(CC=C)c43)[C@@H]1C2, toluene, 1.63 mM, 80.0 °C, 16.0 h) of 72.6%.

For `CC(=O)c1nn2c3c(cc(-c4cnc(C)nc4)cc13)CC=CCC[C@@H](C)C(=O)NC[C@@]13C[C@@H](C(=O)Nc4ccc(F)c(Br)n4)N(C(=O)C2)[C@@H]1C3`, the ring closure, isolated yield (from C=CCC[C@@H](C)C(=O)NC[C@@]12C[C@@H](C(=O)Nc3ccc(F)c(Br)n3)N(C(=O)Cn3nc(C(C)=O)c4cc(-c5cnc(C)nc5)cc(CC=C)c43)[C@@H]1C2, toluene, 1.67 mM, 80.0 °C) was 62.8%.

In the case of `CC(=O)c1nn2c3c(cc(-c4cnc5cc(C)nn5c4)cc13)CC=CCC[C@@H](C)C(=O)NC[C@@]13C[C@@H](C(=O)Nc4nc(C(F)(F)F)ccc4C)N(C(=O)C2)[C@@H]1C3`, the ring closure, isolated yield (from C=CCC[C@@H](C)C(=O)NC[C@@]12C[C@@H](C(=O)Nc3nc(C(F)(F)F)ccc3C)N(C(=O)Cn3nc(C(C)=O)c4cc(-c5cnc6cc(C)nn6c5)cc(CC=C)c43)[C@@H]1C2, toluene, 1.64 mM, 80.0 °C) is reported as 66.7%.

Work on “(1,R,3S,5R)-2-{2-[3-Acetyl-5-methoxy-7-(prop-2-en-1-yl)indazol-1-yl]acetyl}-5-(hex-5-enamidonaethyl)-N-[3-methyl-6-(trifluoromethyl)pyridin-2-yl]-2-azabicyclo[3.1.0]hexane-3-carboxamide” yielded a ring closure, isolated yield (the molecule shown is the open-chain precursor, toluene, 1.43 mM, 80.0 °C) of 69.1%.

Work on “(1R,3S,5R)-2-(2-(3-Acetyl-7-allyl-5-(2-methylpyrimidin-5-yl)-1H-indazol-1-yl)acetyl)-N-(3-methyl-6-(trifluoromethyl)pyridin-2-yl)-5-(((R)-2-methylhex-5-amido)methyl)-2-azabicyclo[3.1.0]hexane-3-carboxamide” yielded a ring closure, isolated yield (the molecule shown is the open-chain precursor, toluene, 1.72 mM, 80.0 °C) of 47.9%.
